Experiments:
[1] = target: purified human, His-tagged PRC2 complex (Homo sapiens, UniProt O75530+Q15910); experiment: Hot Spot HMT assay: inhibition of PRC2 enzymatic activity (transfer of tritiated methyl from SAM to core histone, filter binding); assay type: biochemical; conditions: Inhibition of PRC2-mediated enzymatic activity; 10 nM PRC2 complex, 0.05 mg/ml core histone H3, 1 uM 3H-SAM, 1 hr at 30°C
How it was run: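 Serial compound dilutions starting at 1.0 µM were pre-incubated 20 min at 30°C with 10 nM complex (His-EZH2, Flag-EED, His-SUZ12, His-AEBP2, His-RbAp48) and 0.05 mg/ml core H3. Reaction ran 1 hr at 30°C after adding 1 uM [3H]-SAM; scintillation counting followed filtration.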

Karpas 422 cells = experiment: Karpas 422 cell viability, CTG (Cell Titre Glo) assay; assay type: cell-based, human; conditions: Homo sapiens; Inhibition of proliferation of Karpas 422 cells (EZH2 Y641N); viability measured Day 4, Day 7 or Day 11, time point of the tabulated values not stated
Procedure: Karpas 422 cell line is a human B cell non-Hodgkin's lymphoma cell line established from a patient having DLBCL. This EZH2 heterozygotic cell line expresses a mutant form of EZH2 enzyme (Y641N) that increases histone H3 methylation and this mutation has been implicated in the tumorgenesis of lymphomas, such as DLBCL.
Karpas 422 cells (PHE cat no., 06101702) were cultured in RPMI medium supplemented with 20% fetal bovine serum and 1% penicillin/1% streptomycin and plated at a density of 1000 cells/90 µl/well in 96 well white assay plates. A dose response curve for compounds of the present invention was determined by adding a 10µl aliquot of stock solutions of varying concentrations of compounds to the same medium in each well, over a concentration range of 10µM using 3-fold dilutions to a final concentration of 1.5nM. The plates were incubated at 37° C for predetermined time periods, Day 4, Day 7, or Day 11, and the viability of the cells was measured using a CTG assay kit (Cell Titre Glo; Promega cat.no G7573) on Day 4 and Day 7 in accordance with the manufacturer's instructions.
For the viability assay for the Day 11 plates, the plates were subjected to centrifugation at 1100 rpm for five minutes on Day 7 and the supernatant was removed by aspiration. The cells were resuspended in 90 µl aliquot of the appropriate growth medium lacking the compound followed by addition of 10 µl of a 10X stock of the same compound at the same concentration. The viability of the Day 11 cells was measured using the CTG assay kit described above in accordance with the manufacturer's instructions. The IC50 values for each compound at each predetermined time point were calculated using Graph pad PRISM software and the results are shown in Table 15. A = ≤250 nM; B = […] - ≤500 nM; and C = >500 nM.

Chain of purified human, His-tagged PRC2 complex (Q15910 whole entry): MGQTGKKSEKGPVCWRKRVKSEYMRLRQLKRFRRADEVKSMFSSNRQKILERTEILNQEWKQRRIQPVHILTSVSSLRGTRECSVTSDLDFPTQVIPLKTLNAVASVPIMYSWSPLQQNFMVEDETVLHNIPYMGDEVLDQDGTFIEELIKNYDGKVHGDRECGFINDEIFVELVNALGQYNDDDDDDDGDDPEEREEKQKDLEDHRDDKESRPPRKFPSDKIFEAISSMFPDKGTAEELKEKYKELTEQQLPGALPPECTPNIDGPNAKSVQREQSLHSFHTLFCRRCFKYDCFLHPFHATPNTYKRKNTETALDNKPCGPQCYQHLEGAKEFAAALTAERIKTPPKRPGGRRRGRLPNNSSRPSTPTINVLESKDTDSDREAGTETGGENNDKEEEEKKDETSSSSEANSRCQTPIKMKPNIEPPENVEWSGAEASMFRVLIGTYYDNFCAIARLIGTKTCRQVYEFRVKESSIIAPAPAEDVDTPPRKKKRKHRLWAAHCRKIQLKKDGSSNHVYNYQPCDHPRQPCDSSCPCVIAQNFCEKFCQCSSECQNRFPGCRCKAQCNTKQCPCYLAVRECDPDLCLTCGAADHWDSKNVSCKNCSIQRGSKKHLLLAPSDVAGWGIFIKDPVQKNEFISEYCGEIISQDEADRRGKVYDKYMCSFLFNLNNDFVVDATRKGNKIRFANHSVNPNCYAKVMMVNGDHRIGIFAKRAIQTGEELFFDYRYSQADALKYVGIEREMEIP
Chain of purified human, His-tagged PRC2 complex (O75530 whole entry): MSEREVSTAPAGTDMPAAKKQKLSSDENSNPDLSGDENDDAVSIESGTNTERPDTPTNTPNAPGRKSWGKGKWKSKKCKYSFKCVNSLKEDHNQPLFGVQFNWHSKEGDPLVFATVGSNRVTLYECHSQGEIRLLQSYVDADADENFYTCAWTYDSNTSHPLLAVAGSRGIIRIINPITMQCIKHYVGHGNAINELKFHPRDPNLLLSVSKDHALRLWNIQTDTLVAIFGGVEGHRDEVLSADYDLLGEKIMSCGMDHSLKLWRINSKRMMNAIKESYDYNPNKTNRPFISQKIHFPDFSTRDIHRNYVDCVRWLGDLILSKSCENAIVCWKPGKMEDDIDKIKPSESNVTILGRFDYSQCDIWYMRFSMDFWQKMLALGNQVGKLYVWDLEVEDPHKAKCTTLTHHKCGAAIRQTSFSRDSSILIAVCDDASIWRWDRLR
Chain of purified human, His-tagged PRC2 complex (Q15022 whole entry partner): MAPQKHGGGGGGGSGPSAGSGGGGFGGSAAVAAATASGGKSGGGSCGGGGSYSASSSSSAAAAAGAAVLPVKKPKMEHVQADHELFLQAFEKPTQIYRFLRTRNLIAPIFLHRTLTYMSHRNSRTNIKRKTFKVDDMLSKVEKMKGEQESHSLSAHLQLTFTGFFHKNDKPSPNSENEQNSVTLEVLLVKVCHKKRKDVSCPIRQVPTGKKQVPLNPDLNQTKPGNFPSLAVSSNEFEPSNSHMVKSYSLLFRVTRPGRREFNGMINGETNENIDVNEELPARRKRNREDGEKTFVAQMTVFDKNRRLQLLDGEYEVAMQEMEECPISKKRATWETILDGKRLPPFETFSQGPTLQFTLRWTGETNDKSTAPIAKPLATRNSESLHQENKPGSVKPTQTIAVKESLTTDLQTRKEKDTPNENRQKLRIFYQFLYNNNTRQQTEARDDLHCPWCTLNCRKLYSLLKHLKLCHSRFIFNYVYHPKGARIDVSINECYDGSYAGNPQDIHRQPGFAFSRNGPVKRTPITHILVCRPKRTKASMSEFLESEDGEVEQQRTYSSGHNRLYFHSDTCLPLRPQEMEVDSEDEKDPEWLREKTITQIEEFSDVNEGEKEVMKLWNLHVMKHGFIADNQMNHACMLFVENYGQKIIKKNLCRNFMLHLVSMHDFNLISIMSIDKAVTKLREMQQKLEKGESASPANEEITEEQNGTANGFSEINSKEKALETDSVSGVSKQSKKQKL
Chain of purified human, His-tagged PRC2 complex (Q6ZN18 whole entry partner): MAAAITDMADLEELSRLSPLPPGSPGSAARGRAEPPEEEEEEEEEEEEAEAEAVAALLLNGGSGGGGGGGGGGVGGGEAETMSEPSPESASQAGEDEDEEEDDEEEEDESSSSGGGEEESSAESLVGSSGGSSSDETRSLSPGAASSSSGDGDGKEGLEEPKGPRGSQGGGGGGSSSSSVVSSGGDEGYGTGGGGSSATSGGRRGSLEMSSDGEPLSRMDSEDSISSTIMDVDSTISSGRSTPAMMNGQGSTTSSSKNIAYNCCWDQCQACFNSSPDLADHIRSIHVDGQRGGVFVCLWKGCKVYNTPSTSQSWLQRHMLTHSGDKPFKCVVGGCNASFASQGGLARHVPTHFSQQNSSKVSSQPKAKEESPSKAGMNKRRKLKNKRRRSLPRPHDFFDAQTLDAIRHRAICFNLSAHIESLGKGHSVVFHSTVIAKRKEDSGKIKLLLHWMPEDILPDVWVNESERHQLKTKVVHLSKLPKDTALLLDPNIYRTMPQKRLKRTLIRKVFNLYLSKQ
Chain of purified human, His-tagged PRC2 complex (Q09028 whole entry partner): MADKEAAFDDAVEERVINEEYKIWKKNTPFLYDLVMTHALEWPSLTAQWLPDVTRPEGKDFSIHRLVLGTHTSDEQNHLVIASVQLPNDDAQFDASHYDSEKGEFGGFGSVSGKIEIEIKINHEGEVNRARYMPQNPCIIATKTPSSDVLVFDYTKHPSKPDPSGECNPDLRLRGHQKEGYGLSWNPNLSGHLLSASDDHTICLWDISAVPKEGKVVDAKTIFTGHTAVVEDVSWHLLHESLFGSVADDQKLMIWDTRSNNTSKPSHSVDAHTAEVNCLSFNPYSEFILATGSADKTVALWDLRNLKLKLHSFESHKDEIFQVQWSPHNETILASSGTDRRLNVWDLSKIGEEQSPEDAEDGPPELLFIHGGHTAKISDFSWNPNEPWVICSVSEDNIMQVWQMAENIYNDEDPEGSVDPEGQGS

Compound | IC50 [1] [nM] | IC50 (Karpas 422 cells) [nM]
N#Cc1cn2c(NCc3c(F)ccc4c3CCO4)ncc(-c3cccnn3)c2n1 [Example 142, 5-(((5-fluoro-2,3-dihydrobenzofuran-4-yl)methyl)amino)-8-(pyridazin-3-yl)imidazo[1,2-c]pyrimidine-2-carbonitrile] | < 100 | ≤ 250
Cc1cc(-c2cnc(NCc3c(F)ccc4c3CCO4)n3cc(C(=O)N(C)C)nc23)n(C)n1 [Example 21, 8-(1,3-dimethyl-1H-pyrazol-5-yl)-5-(((5-fluoro-2,3-dihydrobenzofuran-4-yl)methyl)amino)-N,N-dimethylimidazo[1,2-c]pyrimidine-2-carboxamide] | > 500 | ≤ 250
Cc1nc(C2CC2)ncc1-c1cnc(NCc2c(F)ccc3c2CCO3)n2cc(C#N)nc12 [Example 25, 8-(2-cyclopropyl-4-methylpyrimidin-5-yl)-5-(((5-fluoro-2,3-dihydrobenzofuran-4-yl)methyl)amino)imidazo[1,2-c]pyrimidine-2-carbonitrile] | 100 to 500 | 250 to 500
N#Cc1cn2c(NCc3c(F)ccc4c3CCO4)ncc(-c3cnn(CC(F)(F)F)c3)c2n1 [Example 108, 5-(((5-fluoro-2,3-dihydrobenzofuran-4-yl)methyl)amino)-8-(1-(2,2,2-trifluoroethyl)-1H-pyrazol-4-yl)imidazo[1,2-c]pyrimidine-2-carbonitrile] | < 100 | ≤ 250
CNC(=O)c1cn2c(NCc3c(F)ccc4c3CCO4)ncc(-c3cc(C)nn3C)c2n1 [Example 20, 8-(1,3-dimethyl-1H-pyrazol-5-yl)-5-(((5-fluoro-2,3-dihydrobenzofuran-4-yl)methyl)amino)-N-methylimidazo[1,2-c]pyrimidine-2-carboxamide] | < 100 | ≤ 250
Cc1nc(C2CC2)ncc1-c1cnc(NCc2c(F)ccc3c2CCO3)n2cc(C(=O)O)nc12 [Example 7, 8-(2-cyclopropyl-4-methylpyrimidin-5-yl)-5-(((5-fluoro-2,3-dihydrobenzofuran-4-yl)methyl)amino)imidazo[1,2-c]pyrimidine-2-carboxylic acid] | < 100 | > 500
Cc1ncncc1-c1cnc(NCc2c(F)ccc3c2CCO3)n2cc(C#N)nc12 [Example 110, 5-(((5-fluoro-2,3-dihydrobenzofuran-4-yl)methyl)amino)-8-(4-methylpyrimidin-5-yl)imidazo[1,2-c]pyrimidine-2-carbonitrile] | < 100 | ≤ 250
Cc1cc(C(=O)N(C)C)c(F)cc1-c1cnc(NCc2c(F)ccc3c2CCO3)n2cc(C#N)nc12 [Example 43, 4-(2-cyano-5-(((5-fluoro-2,3-dihydrobenzofuran-4-yl)methyl)amlno)lmldazo[1,2-c]pyrlmldln-8-yl)-2-fluoro-N,N,5-trimethylbenzamide] | < 100 | ≤ 250
CN(C)C(=O)c1ccc(-c2cnc(NCc3c(F)ccc4c3CCO4)n3cc(C#N)nc23)c(F)c1F [Example 42, 4-(2-cyano-5-(((5-fluoro-2,3-dihydrobenzofuran-4-yl)methyl)amino)imidazo[1,2-c]pyrimidin-8-yl)-2,3-difluoro-N,N-dimethylbenzamide] | < 100 | ≤ 250
COCCn1cc(-c2cnc(NCc3c(F)ccc4c3CCO4)n3cc(C#N)nc23)cn1 [Example 117, 5-(((5-fluoro-2,3-dihydrobenzofuran-4-yl)methyl)amino)-8-(1-(2-methoxyethyl)-1H-pyrazol-4-yl)imidazo[1,2-c]pyrimidine-2-carbonitrile] | 100 to 500 | ≤ 250

Next, values leading:

IC50 [1] [nM] | IC50 (Karpas 422 cells) [nM] | Compound
< 100 | > 500 | COc1cc(-c2cnc(NCc3c(F)ccc4c3CCO4)n3cc(C#N)nc23)ccn1 [Example 113, 5-(((5-fluoro-2,3-dihydrobenzofuran-4-yl)methyl)amino)-8-(2-methoxypyridin-4-yl)imidazo[1,2-c]pyrimidine-2-carbonitrile]
< 100 | ≤ 250 | COC1CCN(Cc2ccc(-c3cnc(NCc4c(F)ccc5c4CCO5)n4cc(C#N)nc34)cc2)C1 (stereo not drawn) [Example 53, 5-(((5-fluoro-2,3-dihydrobenzofuran-4-yl)methyl)amino)-8-(4-((3-methoxypyrrolidin-1-yl)methyl)phenyl)imidazo[1,2-c]pyrimidine-2-carbonitrile]
< 100 | 250 to 500 | N#Cc1cn2c(NCc3c(F)ccc4c3CCO4)ncc(-c3ccc(N)nc3)c2n1 [Example 127, 8-(6-aminopyridin-3-yl)-5-(((5-fluoro-2,3-dihydrobenzofuran-4-yl)methyl)amino)imidazo[1,2-c]pyrimidine-2-carbonitrile]
< 100 | 250 to 500 | CNS(=O)(=O)c1ccc(-c2cnc(NCc3c(F)ccc4c3CCO4)n3cc(C#N)nc23)cc1 [Example 59, 4-(2-cyano-5-(((5-fluoro-2,3-dihydrobenzofuran-4-yl)methyl)amino)imidazo[1,2-c]pyrimidin-8-yl)-N-methylbenzenesulfonamide]
100 to 500 | ≤ 250 | Cc1nc(N2CCN(C)CC2)ccc1-c1cnc(NCc2c(F)ccc3c2CCO3)n2cc(C#N)nc12 [Example 136, 5-(((5-fluoro-2,3-dihydrobenzofuran-4-yl)methyl)amino)-8-(2-methyl-6-(4-methylpiperazin-1-yl)pyridin-3-yl)imidazo[1,2-c]pyrimidine-2-carbonitrile]
< 100 | > 500 | N#Cc1ccc(-c2cnc(NCc3c(F)ccc4c3CCO4)n3cc(C#N)nc23)cn1 [Example 128, 8-(6-cyanopyridin-3-yl)-5-(((5-fluoro-2,3-dihydrobenzofuran-4-yl)methyl)amino)imidazo[1,2-c]pyrimidine-2-carbonitrile]
< 100 | ≤ 250 | CN(C)C(=O)c1c(F)cc(-c2cnc(NCc3c(F)ccc4c3CCO4)n3cc(C#N)nc23)cc1F [Example 45, 4-(2-cyano-5-(((5-fluoro-2,3-dihydrobenzofuran-4-yl)methyl)amino)imidazo[1,2-c]pyrimidin-8-yl)-2,6-difluoro-N,N-dimethylbenzamide]
< 100 | ≤ 250 | N#Cc1cn2c(NCc3c(F)ccc4c3CCO4)ncc(-c3ccc(C4CC4)nc3)c2n1 [Example 116, 8-(6-cyclopropylpyridin-3-yl)-5-(((5-fluoro-2,3-dihydrobenzofuran-4-yl)methyl)amino)imidazo[1,2-c]pyrimidine-2-carbonitrile]
100 to 500 | ≤ 250 | CCn1cc(-c2cnc(NCc3c(F)ccc4c3CCO4)n3cc(C#N)nc23)cn1 [Example 119, 8-(1-ethyl-1H-pyrazol-4-yl)-5-(((5-fluoro-2,3-dihydrobenzofuran-4-yl)methyl)amino)imidazo[1,2-c]pyrimidine-2-carbonitrile]
< 100 | > 500 | CC(C)Oc1ccc(-c2cnc(NCc3c(F)ccc4c3CCO4)n3cc(C#N)nc23)cn1 [Example 133, 5-(((5-fluoro-2,3-dihydrobenzofuran-4-yl)methyl)amino)-8-(6-isopropoxypyridin-3-yl)imidazo[1,2-c]pyrimidine-2-carbonitrile]
< 100 | ≤ 250 | CN1CCN(C(=O)c2ccc(-c3cnc(NCc4c(F)ccc5c4CCO5)n4cc(C#N)nc34)cc2)CC1 [Example 115, 5-(((5-fluoro-2,3-dihydrobenzofuran-4-yl)methyl)amino)-8-(4-(4-methylpiperazine-1-carbonyl)phenyl)imidazo[1,2-c]pyrimidine-2-carbonitrile]

Reference: patent EP4043466B1, “PRC2 INHIBITORS” (Mirati Therapeutics, Inc., priority 2018, dated 2019)
